In patent US6573262B2, “Composition and antiviral activity of substituted indoleoxoacetic piperazine derivatives” (priority 2000, dated 2003):

System: HIV-1 single-round infectious reporter virus
Assay: microbe, parasite or virus in culture
Format: cell-based
Details: for EC50: Human immunodeficiency virus 1, HeLa-CD4/CCR5, 72 h, read-out: EC50 Group from Table 1; for inhibition at 10 µM: Human immunodeficiency virus 1, HeLa-CD4/CCR5, read-out: % Inhibition @ 10 uM

Structure (SMILES)	EC50	inhibition at 10 µM
COc1ccc(C(C)=O)c2[nH]cc(C(=O)C(=O)N3CCN(C(=O)c4ccccc4)CC3)c12 [Example 119]	< 1000 nM	–
N=C(NN)c1ccc(F)c2c(C(=O)C(=O)N3CCN(C(=O)c4ccccc4)CC3)c[nH]c12 [Example 77]	–	> 98%
O=C(C(=O)N1CCN(C(=O)c2ccccn2)CC1)c1c[nH]c2c(-c3noc(C(Cl)(Cl)Cl)n3)ccc(F)c12 [Example 188]	< 1000 nM	–
O=C(NCc1ccco1)c1ccc(F)c2c(C(=O)C(=O)N3CCN(C(=O)c4ccccc4)CC3)c[nH]c12 [Example 50]	< 1000 nM	> 98%
CN(C)CCNC(=O)c1ccc(F)c2c(C(=O)C(=O)N3CCN(C(=O)c4ccccc4)CC3)c[nH]c12 [Example 44]	< 1000 nM	97%
O=C(C(=O)N1CCN(C(=O)c2ccccc2)CC1)c1c[nH]c2c(-c3cncn3Cc3ccccc3)ccc(F)c12 [Example 84]	< 1000 nM	–
CC(C)Nc1nc(-c2ccc(F)c3c(C(=O)C(=O)N4CCN(C(=O)c5ccccc5)CC4)c[nH]c23)no1 [Example 158]	< 1000 nM	–
O=C(C(=O)N1CCN(C(=O)c2ccccc2)CC1)c1c[nH]c2c(-c3nc4ncccc4[nH]3)ccc(F)c12 [Example 165]	< 1000 nM	–
COC(=O)/C=C/c1ccc(F)c2c(C(=O)C(=O)N3CCN(C(=O)c4ccccc4)CC3)c[nH]c12 [Example 217]	< 1000 nM	–
CNC(=O)c1ccc(OC)c2c(C(=O)C(=O)N3CCN(C(=O)c4ccccc4)CC3)c[nH]c12 [Example 125]	< 1000 nM	–
C=CCn1nnc(-c2ccc(F)c3c(C(=O)C(=O)N4CCN(C(=O)c5ccccc5)CC4)c[nH]c23)n1 [Example 26]	< 1000 nM	> 98%
O=C(C(=O)N1CCN(C(=O)c2ccccc2)CC1)c1c[nH]c2c(C(=O)Nc3nnn[nH]3)cccc12 [Example 63]	< 1000 nM	96%
O=C(NCc1ccccc1)c1ccc(F)c2c(C(=O)C(=O)N3CCN(C(=O)c4ccccc4)CC3)c[nH]c12 [Example 45]	< 1000 nM	> 98%
NNC(=O)c1ccc(F)c2c(C(=O)C(=O)N3CCN(C(=O)c4ccccc4)CC3)c[nH]c12 [Example 92]	< 1000 nM	–
C[C@@H]1CN(C(=O)c2ccccc2)CCN1C(=O)C(=O)c1c[nH]c2c(-c3noc(N)n3)ccc(F)c12 [Example 155]	< 1000 nM	–
CC(=O)OCn1nnc(-c2ccc(F)c3c(C(=O)C(=O)N4CCN(C(=O)c5ccccc5)CC4)c[nH]c23)n1 [Example 108]	< 1000 nM	–
Cc1cc(NC(=O)c2ccc(F)c3c(C(=O)C(=O)N4CCN(C(=O)c5ccccc5)CC4)c[nH]c23)on1 [Example 37]	< 1000 nM	> 98%
COc1ccc(-c2cccnc2)c2[nH]cc(C(=O)C(=O)N3CCN(C(=O)c4ccccc4)CC3)c12 [Example 8]	< 1000 nM	> 98%
O=C(C(=O)N1CCN(C(=O)c2ccccc2)CC1)c1c[nH]c2c(-c3noc(C(Cl)(Cl)Cl)n3)ccc(F)c12 [Example 81]	< 1000 nM	–
O=C(C(=O)N1CCN(C(=O)c2ccccn2)CC1)c1c[nH]c2c(-c3ncon3)ccc(F)c12 [Example 191]	< 1000 nM	–
O=C(C(=O)N1CCN(C(=O)c2ccccc2)CC1)c1c[nH]c2c(-c3nccs3)ccc(F)c12 [Example 14]	< 1000 nM	> 98%
O=C(C(=O)N1CCN(C(=O)c2ccccc2)CC1)c1c[nH]c2c(C(=O)NS(=O)(=O)c3ccccc3)cccc12 [Example 62]	1000 to 5000 nM	74%
CC(C)(C)OC(=O)NCCNC(=O)c1ccc(F)c2c(C(=O)C(=O)N3CCN(C(=O)c4ccccc4)CC3)c[nH]c12 [Example 153]	< 1000 nM	–
O=C(NS(=O)(=O)c1ccccc1)c1ccc(F)c2c(C(=O)C(=O)N3CCN(C(=O)c4ccccc4)CC3)c[nH]c12 [Example 40]	< 1000 nM	> 98%
O=C(NCCc1c[nH]c2ccccc12)c1ccc(F)c2c(C(=O)C(=O)N3CCN(C(=O)c4ccccc4)CC3)c[nH]c12 [Example 48]	< 1000 nM	> 98%
